Converted amounts (≈) assume the structure as drawn.
Columns and labels:
Bacillus subtilis = assay: In vitro minimum inhibitory concentration was determined for antibacterial activity against Bacillus subtilis ATCC 6633 strain.; format: functional
Micrococcus luteus = assay: In vitro minimum inhibitory concentration was determined for antibacterial activity against Micrococcus luteus ATCC 9341 strain.; format: functional
Pseudomonas aeruginosa [1] = assay: In vitro minimum inhibitory concentration was determined for antibacterial activity against Pseudomonas aeruginosa 10145 strain.; format: functional
Klebsiella aerogenes [2] = assay: In vitro minimum inhibitory concentration was determined for antibacterial activity against Klebsiella aerogenes 1076E strain.; format: functional
Citrobacter koseri = assay: In vitro minimum inhibitory concentration was determined for antibacterial activity against Citrobacter diversus 2046E strain.; format: functional
Staphylococcus aureus [3] = assay: In vitro minimum inhibitory concentration was determined for antibacterial activity against Staphylococcus aureus 241 strain.; format: functional
Escherichia coli [4] = assay: In vitro minimum inhibitory concentration was determined for antibacterial activity against Escherichia coli 851E strain.; format: functional
Staphylococcus aureus [5] = assay: In vitro minimum inhibitory concentration was determined for antibacterial activity against Staphylococcus aureus 77 strain.; format: functional
[6] = system: Staphylococcus epidermidis; assay: In vitro minimum inhibitory concentration was determined for antibacterial activity against Staphylococcus epidermis 178 strain.; format: functional
Salmonella typhimurium = assay: In vitro minimum inhibitory concentration was determined for antibacterial activity against Salmonella Typhimurium 14028 strain.; format: functional, Salmonella enterica subsp. enterica serovar Typhimurium; conditions: Salmonella enterica
Klebsiella aerogenes [7] = assay: In vitro minimum inhibitory concentration was determined for antibacterial activity against Klebsiella aerogenes 1082E strain.; format: functional
Enterobacter cloacae [8] = assay: In vitro minimum inhibitory concentration was determined for antibacterial activity against Enterobacter cloacae 1194E strain.; format: functional
Staphylococcus aureus [9] = assay: In vitro minimum inhibitory concentration was determined for antibacterial activity against Staphylococcus aureus giorgio strain.; format: functional
Enterococcus faecalis = assay: In vitro minimum inhibitory concentration was determined for antibacterial activity against […] 29212 strain.; format: functional
Escherichia coli [10] = assay: In vitro minimum inhibitory concentration was determined for antibacterial activity against Escherichia coli TEM5 3739E strain.; format: functional
[11] = system: Staphylococcus epidermidis; assay: In vitro minimum inhibitory concentration was determined for antibacterial activity against Staphylococcus epidermis 887E strain.; format: functional
Escherichia coli [12] = assay: In vitro minimum inhibitory concentration was determined for antibacterial activity against Escherichia coli TEM9 2639E strain.; format: functional
Staphylococcus aureus [13] = assay: In vitro minimum inhibitory concentration was determined for antibacterial activity against Staphylococcus aureus 6538p strain.; format: functional
Escherichia coli [14] = assay: In vitro minimum inhibitory concentration was determined for antibacterial activity against Escherichia coli 10536 strain; format: functional
Pseudomonas aeruginosa [15] = assay: In vitro minimum inhibitory concentration was determined for antibacterial activity against Pseudomonas aeruginosa 1012E strain.; format: functional
Enterobacter cloacae [16] = assay: In vitro minimum inhibitory concentration was determined for antibacterial activity against Enterobacter cloacae p99 strain.; format: functional
[17] = system: Acinetobacter calcoaceticus; assay: In vitro minimum inhibitory concentration was determined for antibacterial activity against Acinetobacter calcoaceticus 15473 strain.; format: functional
Escherichia coli [18] = assay: In vitro minimum inhibitory concentration was determined for antibacterial activity against Escherichia coli 3190Y strain.; format: functional

Row | SMILES | MIC (Bacillus subtilis) [µg/mL] | MIC (Micrococcus luteus) [µg/mL] | MIC (Klebsiella aerogenes [2]) [µg/mL] | MIC (Citrobacter koseri) [µg/mL] | MIC (Staphylococcus aureus [3]) [µg/mL] | MIC (Escherichia coli [4]) [µg/mL] | MIC (Staphylococcus aureus [5]) [µg/mL] | MIC [6] [µg/mL] | MIC (Salmonella typhimurium) [µg/mL] | MIC (Klebsiella aerogenes [7]) [µg/mL] | MIC (Enterobacter cloacae [8]) [µg/mL] | MIC (Staphylococcus aureus [9]) [µg/mL] | MIC (Enterococcus faecalis) [µg/mL] | MIC (Escherichia coli [10]) [µg/mL] | MIC [11] [µg/mL] | MIC (Escherichia coli [12]) [µg/mL] | MIC (Staphylococcus aureus [13]) [µg/mL] | MIC (Escherichia coli [14]) [µg/mL] | MIC (Pseudomonas aeruginosa [15]) [µg/mL] | MIC [17] [µg/mL] | further results
1 | Cc1c(N2CCC(N)C2)c(F)c2c(c1N)c(=O)c(C(=O)O)cn2C1CC1 (configuration not stated) | 0.063 (≈ 0.175 µM) | 8 (≈ 22.2 µM) | 0.5 (≈ 1.39 µM) | 0.13 (≈ 0.361 µM) | 8 (≈ 22.2 µM) | 0.13 (≈ 0.361 µM) | 0.5 (≈ 1.39 µM) | 16 (≈ 44.4 µM) | 0.25 (≈ 0.694 µM) | 0.13 (≈ 0.361 µM) | 0.25 (≈ 0.694 µM) | 0.25 (≈ 0.694 µM) | 8 (≈ 22.2 µM) | 1 (≈ 2.77 µM) | 0.25 (≈ 0.694 µM) | 0.13 (≈ 0.361 µM) | 0.25 (≈ 0.694 µM) | 0.031 (≈ 0.086 µM) | 1 (≈ 2.77 µM) | 0.5 (≈ 1.39 µM) | MIC (Pseudomonas aeruginosa [1]): 4 µg/mL (≈ 11.1 µM); MIC (Enterobacter cloacae [16]): 0.031 µg/mL (≈ 0.086 µM); MIC (Escherichia coli [18]): 0.031 µg/mL (≈ 0.086 µM)
2 | O=C(O)c1cn(C2CC2)c2cc(N3CCNCC3)c(F)cc2c1=O [CIPROFLOXACIN] | – | 4 (≈ 12.1 µM) | 0.13 (≈ 0.392 µM) | 0.016 (≈ 0.0483 µM) | 128 (≈ 386 µM) | – | 0.25 (≈ 0.754 µM) | 128 (≈ 386 µM) | – | ≤ 0.008 | – | 0.25 (≈ 0.754 µM) | 0.5 (≈ 1.51 µM) | 0.13 (≈ 0.392 µM) | 0.13 (≈ 0.392 µM) | – | 0.13 (≈ 0.392 µM) | ≤ 0.008 | 0.13 (≈ 0.392 µM) | 0.25 (≈ 0.754 µM) | MIC (Escherichia coli [18]): ≤ 0.008 µg/mL
3 | Cc1c(N2CCC(CN)C2)c(F)c2c(c1N)c(=O)c(C(=O)O)cn2C1CC1 (configuration not stated) | 0.016 (≈ 0.0427 µM) | 4 (≈ 10.7 µM) | 0.25 (≈ 0.668 µM) | 0.13 (≈ 0.347 µM) | 8 (≈ 21.4 µM) | 0.063 (≈ 0.168 µM) | 0.063 (≈ 0.168 µM) | 16 (≈ 42.7 µM) | 0.13 (≈ 0.347 µM) | 0.13 (≈ 0.347 µM) | 0.031 (≈ 0.0828 µM) | 0.031 (≈ 0.0828 µM) | 0.25 (≈ 0.668 µM) | 0.5 (≈ 1.34 µM) | 0.031 (≈ 0.0828 µM) | 0.13 (≈ 0.347 µM) | 0.031 (≈ 0.0828 µM) | 0.031 (≈ 0.0828 µM) | 1 (≈ 2.67 µM) | 0.13 (≈ 0.347 µM) | MIC (Pseudomonas aeruginosa [1]): 2 µg/mL (≈ 5.34 µM); MIC (Enterobacter cloacae [16]): 0.031 µg/mL (≈ 0.0828 µM); MIC (Escherichia coli [18]): 0.016 µg/mL (≈ 0.0427 µM)
4 | CC1COc2c(N3CCN(C)CC3)c(F)cc3c(=O)c(C(=O)O)cn1c23 (configuration not stated) [OFLOXACIN] | 0.063 (≈ 0.174 µM) | 2 (≈ 5.53 µM) | 0.25 (≈ 0.692 µM) | 0.13 (≈ 0.36 µM) | 64 (≈ 177 µM) | 0.063 (≈ 0.174 µM) | 0.25 (≈ 0.692 µM) | 32 (≈ 88.6 µM) | 0.13 (≈ 0.36 µM) | 0.13 (≈ 0.36 µM) | 0.13 (≈ 0.36 µM) | 0.5 (≈ 1.38 µM) | 2 (≈ 5.53 µM) | – | 0.25 (≈ 0.692 µM) | 0.063 (≈ 0.174 µM) | 0.5 (≈ 1.38 µM) | 0.031 (≈ 0.0858 µM) | – | 0.25 (≈ 0.692 µM) | MIC (Enterobacter cloacae [16]): 0.031 µg/mL (≈ 0.0858 µM)
5 | Cc1c(N2CCNC(C)C2)c(F)c2c(c1N)c(=O)c(C(=O)O)cn2C1CC1 (configuration not stated) | 0.063 (≈ 0.168 µM) | 8 (≈ 21.4 µM) | 0.25 (≈ 0.668 µM) | 0.063 (≈ 0.168 µM) | 16 (≈ 42.7 µM) | 0.063 (≈ 0.168 µM) | 0.5 (≈ 1.34 µM) | 16 (≈ 42.7 µM) | 0.13 (≈ 0.347 µM) | 0.13 (≈ 0.347 µM) | 0.13 (≈ 0.347 µM) | 0.25 (≈ 0.668 µM) | 2 (≈ 5.34 µM) | 0.5 (≈ 1.34 µM) | 0.25 (≈ 0.668 µM) | 0.063 (≈ 0.168 µM) | 0.5 (≈ 1.34 µM) | 0.063 (≈ 0.168 µM) | 2 (≈ 5.34 µM) | 0.13 (≈ 0.347 µM) | MIC (Pseudomonas aeruginosa [1]): 2 µg/mL (≈ 5.34 µM); MIC (Enterobacter cloacae [16]): 0.016 µg/mL (≈ 0.0427 µM); MIC (Escherichia coli [18]): 0.016 µg/mL (≈ 0.0427 µM)
6 | Cc1c(N2CCNCC2)c(F)c2c(c1N)c(=O)c(C(=O)O)cn2C1CC1 | 0.031 (≈ 0.086 µM) | 4 (≈ 11.1 µM) | 0.25 (≈ 0.694 µM) | 0.063 (≈ 0.175 µM) | 16 (≈ 44.4 µM) | 0.031 (≈ 0.086 µM) | 0.5 (≈ 1.39 µM) | 16 (≈ 44.4 µM) | 0.063 (≈ 0.175 µM) | 0.031 (≈ 0.086 µM) | 0.063 (≈ 0.175 µM) | 0.25 (≈ 0.694 µM) | 4 (≈ 11.1 µM) | 0.5 (≈ 1.39 µM) | 0.13 (≈ 0.361 µM) | 0.031 (≈ 0.086 µM) | 0.25 (≈ 0.694 µM) | ≤ 0.008 | 1 (≈ 2.77 µM) | 0.13 (≈ 0.361 µM) | MIC (Pseudomonas aeruginosa [1]): 2 µg/mL (≈ 5.55 µM); MIC (Enterobacter cloacae [16]): ≤ 0.008 µg/mL; MIC (Escherichia coli [18]): ≤ 0.008 µg/mL
